Assays:
[1] = test system: HSV-1 KOS virions; test: Electron microscopy of peptide-treated virions (aggregation); conditions: 25 μM peptide, purified virus particles
Procedure: Purified HSV-1 KOS virions (2.5×10^7 pfu/ml) according to Visalli et al., Virus Res. 29:167 (1993) were treated with 25 μM antiviral peptide SEQ ID NO:1 or the control peptide EBX (SEQ ID NO: 17) in 40 μl serum-free DMEM buffered with 25 mM Hepes (pH 7.4) for 5 to 60 min at 4 or 23° C. Aliquots (10 μl) were adsorbed to pioloform poly-L-lysine-coated grids for 5 min at 23° C. Grids were rinsed with PBS, stained with 2% phosphotungstic acid (PTA) in water adjusted to pH ˜6 and air dried. Alternatively, virus was pre-adsorbed to grids and treated with peptides thereafter. A total of 4×10^9 pfu/ml of purified HSV-1 KOS in 5 μl PBS was applied to the coated grids for 5 min at 23° C., and the grids were rinsed once with serum-free DMEM buffered with 25 mM Hepes (pH 7.4) and treated with 15 μl of 5 mM EB or EBX in the same medium for 30 min at 37° C. The pH of highly concentrated solutions of antiviral peptide SEQ ID NO:1 and EBX was re-adjusted to 7.4 with NaOH prior to use. To prevent evaporation of the peptide-containing solutions, each grid was held in a Hiraoka flexible staining plate and covered with miniature bell jar made from an 0.5 ml polypropylene micro-centrifuge tubes, small enough for the 15 μl to fill half of the bell jar facing the coated surface of the grid. The entire assembly was then incubated in a moist chamber for 30 min at 37° C. […]

[2] = test system: hrR3; test: LacZ+ virus (hrR3) entry assay; assay type: cell-based
Procedure: Confluent Vero cell cultures in 96-well microtiter plates were switched to Hepes-buffered serum-free DMEM, cooled on ice to 4° C. for 30 min, and infected with hrR3 for 1 hour at 4° C. in 40 μl of medium. Unattached virus was removed by rinsing with ice-cold medium. Treatments with antiviral peptide SEQ ID NO:1, referred to as EB, or a control peptide which comprised the RRKK tetra-peptide (SEQ ID NO:16) attached to a scrambled version of the membrane transiting peptide RRKKLAALPLVLAAPLAVLA (SEQ ID NO:17) (referred to as EBX), or mock-treatments with peptide-free medium were carried out in serum-free DMEM as indicated. Virus entry was initiated by transferring cultures to 37° C. To inactivate any remaining extracellular virus, cultures were rinsed with PBS and exposed to low pH citrate buffer (40 mM citric acid, 10 mM KCl, 135 mM NaCl, pH 3.0, according to Highlander et al., J. Virol. 61:3356 (1987), for 1 min at 23° C. The citrate was rinsed off with PBS and cultures were maintained in serum-supplemented DMEM until they were fixed with 0.5% gluteraldehyde in 5×PBS for 30 min at 23° C., stained for β-galactosidase activity for 1 hour or overnight at 23° C. with X-gal (Fisher Biotech; BP 1615-1) in 1×PBS containing […], 1.3 mM K4Fe(CN)6, and 1.3 mM K3Fe(CN)6, and scored for the presence of blue lacZ^+ cells.
In these studies, the hrR3 virus was pre-adsorbed to cells for 1 hour at 4° C. before ice cold 25 μM EB or EBX were added in serum-free DMEM. After an additional 1 hour at 4° C., cultures were shifted to 37° C. to initiate virus entry. At 15 min intervals following the temperature shift, any virus remaining outside the cells was inactivated by washing the cultures with low pH citrate buffer. Cultures were then rinsed and returned to peptide-free serum-supplemented DMEM until they were fixed and stained for f-galactosidase 8 hours after the temperature shift.
This conclusion is strengthened by the finding that the EB-sensitive phase of infection with pre-adsorbed virus clearly precedes expression of lacZ genes in hrR3 infected cells (FIG. 7A). Again, hrR3 was pre-adsorbed to cells for 1 hour at 4° C., unattached virus was rinsed off, and cells were kept for an additional hour at 4° C. Cultures were then transferred to 23° C. for 30 min before they were switched to 37° C. The more gradual change to 37° C. allowed cell layers to remain intact through subsequent frequent medium changes. Immediately following viral adsorption, cells were treated with 50 μM EB for 1 hour periods at consecutive 1 hour intervals. Between 1 and 4 hours post-infection, virus entry was inhibited by 70-80%. […] Parallel cultures were immediately fixed after mock-treatments and stained with X-gal. In these cultures, blue (lacZ^+) cells first appeared 7 hours post-infection and their number increased nearly linearly for the next 3 hours (FIG. 7A, (∘)). By 7 hours post-infection, EB ceased to be inhibitory.

[3] = test system: hrR3; test: Virucidal assay; assay type: cell-based; conditions: overnight dialysis against serum-containing medium
Procedure: […] The treated virus was diluted 200-fold with serum-supplemented DMEM and assayed for infectivity approximately 1 hour later in microtiter wells seeded with Vero cells (3.5×10^4 cells/well) 1 d earlier. Forty or 100 microliter volumes of diluted virus were adsorbed for 1 or 2 h at 37° C. and lacZ^+ cells were scored 8 hours later. In some experiments, aliquots of diluted virus were first dialyzed (Spectra/Por; MWCO 12-14,000) overnight at 4° C. against a 60-fold excess volume of Hepes-buffered serum-supplemented DMEM or forced by syringe through 0.22 μm membranes (Millex-GV; Millipore) before the remaining infectious virus was assayed.

H-RRKKAAVALLPAVLLALLAP-OH [EB]
state of virus particles by electron microscopy [1]: nearly all of the particles were seen in relatively few large aggregates | inhibition of virus entry ([2]; 50 μM EB for 1 hour periods, between 1 and 4 hours post-infection (FIG. 7A)): 70-80% | effect on development of lacZ+ cells ([2]; peptide added immediately after each citrate treatment (FIG. 6B)): no longer had any effect | reversibility of virion inactivation [3]: irreversibly inactivated

Source: patent US8748566B2, “Pharmacologically active antiviral peptides and methods of use” (priority 2000, dated 2014)
